Reference: US8420859B2, “Formulations” (Syngenta Limited, priority 2006, dated 2013)

Legend:
[1] = tested on: amaranthus retroflexus (AMARE), alopecurus myosuorides (ALOMY), chenopodium album (CHEAL) and digitaria sanguinalis (DIGSA); assay: Phytotoxic damage to young plants sprayed with solvent; assay type: in vivo; details: for Observed damage with solvent and Tween 20: solvent 1% w/w plus 0.5% Tween 20, 2500 litres per hectare
Excerpt: Formulations that are applied to crop plants can often lead to phytotoxic damage. This damage may take the form of the formation of necrotic spots where sprayed formulation has landed on leaf surfaces or it may take the form of chlorosis or larger scale damage to the plant such as dessication and death. In order to assess the safety of solvents to plant species they were sprayed at high usage rates and high water volumes onto very sensitive, young plants.
The plant species amaranthus retroflexus (AMARE), alopecurus myosuorides (ALOMY), chenopodium album (CHEAL) and digitaria sanguinalis (DIGSA) were grown from seed under glass house conditions until they reached the first leaf stage. A solvent was dissolved in distilled water at a rate of 1% w/w and sprayed onto the plants at a rate of 2500 litres per hectare using a laboratory track sprayer. The plants were maintained in the glasshouse for a period of 2 weeks in order to observe any effects on the plants. Untreated plants were grown and kept under the same conditions as a direct comparison to the treated samples. A second set of identical plants was also sprayed with the novel solvent however in this case 0.5% of the commercial surfactant Tween 20 (T) was also added to the spray solution. In this experiment control plants for comparison were also sprayed with 0.5% Tween 20 but not with the solvent. Plants were examined after 1, 2, 6, 7, 9 and 13 days to try to find evidence of damage to the treated plants. All experiments were carried out in duplicate.

[2] = tested on: daphnia; assay: Daphnia screening at 100 mg/l, immobility over 24 and 48 hours; assay type: in vivo; details: single concentration 100 mg/l, 18-19° C., four replicates; for EC50: 48 h
Description: Daphnia screening is commonly carried out to assess the inherent toxicity of chemicals. In this test five daphnia were placed in a beaker full of water held between 18 and 19° C. A lactamide chemical of interest was introduced to a concentration of 100 mg/l and the daphnia were monitored over 24 and 48 hours. Any daphnia which became immobile were recorded and the number was used for the assessment. If less than half of the daphnia were immobile after 48 hours the EC50 (48 hours) figure was classified as being >100 mg/l [otherwise, it would be less than or equal to 100 mg/l]. The lactamides of Table 6 were tested and their EC50 figures are tabulated (each experiment was replicated four times and in fact in all these tests none of the daphnia died): […]

[3] = Solubility of cyproconazole in solvent (saturated solution, HPLC); assay type: physicochemical
Description: A sample of a solvent (200 microlitres) was added to a 4 ml volume glass vial. The pesticide cyproconazole was added to the vial and shaken to allow thorough mixing. The vial was left to equilibrate at 25° C. for 24 hours after which time it was examined visually. If the solid had dissolved a further quantity of cyproconazole was added, the vial shaken and then left for another 24 hours. This process was repeated until a saturated solution had formed after which time the vial was left to equilibrate for one week. The glass vial was thoroughly shaken using a laboratory Whirlimixer™ (T) (Fisons Scientific Instruments Limited), once per day, during this period. After this time the sample was centrifuged, the supernatant was sampled and analysed by HPLC with reference to a known weight of pure cyproconazole, in order to determine the concentration of cyproconazole in solution.

[4] = tested on: skin; assay: SIFT (Skin Integrity Function Test): electrical resistance of skin after exposure
Excerpt: Skin irritation and damage can be measured most easily by a well-known SIFT (Skin Integrity Function Test) procedure measuring the electrical resistance of the skin after exposure to the material of interest and comparing this to the electrical resistance of untreated skin. […] SLS is used in shampoo and toothpaste formulations and is a suitable control because much is known about its irritating behaviour on human skin and eye tissue.

[5] = Flash point, Seta flash 3 closed cup tester; assay type: physicochemical; details: Seta flash 3 closed cup tester model 30000-0
Description: The flammability of solvents is of concern to minimise risk during storage, transport and use. Typically the risk is assessed by measuring the flash point of the solvent. […] The measured value was 108° C.

[6] = solvent 1% w/w in distilled water, 2500 litres per hectare, first leaf stage plants, examined 1-13 days, duplicate
[7] = first leaf stage plants, examined 1-13 days, duplicate

## CC(O)C(=O)NN1CCCC1 (stereo not drawn) [N-pyrrolidinyl lactamide]
[1]; [6]
  Observed damage with solvent: None
[1]; [7]
  Observed damage with solvent and Tween 20: None

## CC(O)C(=O)NN1CCOCC1 (stereo not drawn) [N-morpholinyl lactamide]
[1]; [6]
  Observed damage with solvent: None
[1]; [7]
  Observed damage with solvent and Tween 20: None
[2]
  EC50: > 100 µg/mL

## CC(O)C(=O)NCCCN1CCOCC1 (stereo not drawn) [N-propyl morpholynyl lactamide]
[1]; [6]
  Observed damage with solvent: None
[1]; [7]
  Observed damage with solvent and Tween 20: None

## N-2-hydroxyethyl piperidinyl lactamide
[3]
  % cyproconazole in solution: 19.3% w/w
[1]; [6]
  Observed damage with solvent: None
[1]; [7]
  Observed damage with solvent and Tween 20: None
[2]
  EC50 (48 hours): >100 µg/mL

## CC(O)C(=O)NCCO (stereo not drawn) [N-2-hydroxyethyl lactamide]
[1]; in vivo
  Observed damage with solvent: None

## CC(C)NC(=O)C(C)O (stereo not drawn) [N-isopropyl Lactamide]
[1]; [6]
  Observed damage with solvent: None
[1]; [7]
  Observed damage with solvent and Tween 20: None

## CCCCN(C)C(=O)C(C)O (stereo not drawn) [N-methyl-N-butyl lactamide]
[3]
  % cyproconazole in solution: 33.0% w/w
[1]; [6]
  Observed damage with solvent: None
[1]; [7]
  Observed damage with solvent and Tween 20: None
[2]
  EC50 (48 hours): >100 µg/mL

## CCNC(=O)C(C)O (stereo not drawn) [N-ethyl lactamide]
[1]; [6]
  Observed damage with solvent: None
[1]; [7]
  Observed damage with solvent and Tween 20: None

## CC(C)CNC(=O)C(C)O (stereo not drawn) [N-isobutyl lactamide]
[1]; [6]
  Observed damage with solvent: None
[1]; [7]
  Observed damage with solvent and Tween 20: None

## CCCCC(CC)CNC(=O)C(C)O (stereo not drawn) [N-(2-ethylhexyl) lactamide]
[2]
  EC50: > 100 µg/mL

## CCC(CO)NC(=O)C(C)O (stereo not drawn) [N-1-ethyl-2-hydroxyethyl lactamide]
[1]; [7]
  Observed damage with solvent and Tween 20: None

## CC(O)C(=O)NCc1ccccc1 (stereo not drawn) [N-benzyl Lactamide]
[1]; [6]
  Observed damage with solvent: None
[1]; [7]
  Observed damage with solvent and Tween 20: None

## CCCCCCCCCCCCOS(=O)(=O)[O-].[Na+] [SLS, sodium lauryl sulphate]
[4]; 0.5% w/w aqueous solution, Table 2, untreated control 8.00
  Electrical resistivity: 2.03 kilo ohms
[4]; 1.0% solution, Table 2, untreated control 8.00
  Electrical resistivity: 1.84 kilo ohms
[4]; 10.0% solution, Table 2, untreated control 8.00
  Electrical resistivity: 0.91 kilo ohms
[4]; 10% w/w solution, skin post-treatment, mean of five measurements, untreated control 8.00
  Electrical resistivity: 0.91 kilo ohms

## CC(C)CCC(C)NC(=O)C(C)O (stereo not drawn) [N-1,4-dimethylpentyl lactamide]
[3]
  % cyproconazole in solution: 10.5% w/w

## N-1-hyroxyethylbutyl lactamide
[1]; [6]
  Observed damage with solvent: None
[1]; [7]
  Observed damage with solvent and Tween 20: None

## CCC(CC)NC(=O)C(C)O (stereo not drawn) [N-(1-ethylpropyl) lactamide]
[2]
  EC50: > 100 µg/mL

## CCN(CCO)C(=O)C(C)O (stereo not drawn) [N-ethyl-N-2-hydroxyethyl lactamide]
[3]
  % cyproconazole in solution: 18.2% w/w
[1]; [6]
  Observed damage with solvent: None
[1]; [7]
  Observed damage with solvent and Tween 20: None
[2]
  EC50 (48 hours): >100 µg/mL

## CC(O)C(=O)N(C)C (stereo not drawn) [dimethyl lactamide, N,N-dimethyl lactamide]
[5]
  flash point: 108 °C
[4]; 1 % w/w
  Electrical resistivity: 8.04 kilo ohms
[4]; 10 % w/w
  Electrical resistivity: 7.72 kilo ohms

## CCCN(C)C(=O)C(C)O (stereo not drawn) [N-methyl-N-propyl lactamide]
[3]
  % cyproconazole in solution: 27.3% w/w
[1]; [6]
  Observed damage with solvent: None
[1]; [7]
  Observed damage with solvent and Tween 20: None
[2]
  EC50 (48 hours): >100 µg/mL

## CC(O)C(=O)N(CCO)Cc1ccccc1 (stereo not drawn) [N-hydroxyethyl-N-benzyl lactamide]
[3]
  % cyproconazole in solution: 25.0% w/w
[1]; [6]
  Observed damage with solvent: None
[1]; [7]
  Observed damage with solvent and Tween 20: None
[2]
  EC50 (48 hours): >100 µg/mL

## CC(C)CC(C)NC(=O)C(C)O (stereo not drawn) [N-1,3-dimethyl butyl lactamide]
[1]; [6]
  Observed damage with solvent: None
[1]; [7]
  Observed damage with solvent and Tween 20: None

## CCN(CC)CCCNC(=O)C(C)O (stereo not drawn) [3-diethylamino propyl lactamide]
[1]; [6]
  Observed damage with solvent: None

## C=CCNC(=O)C(C)O (stereo not drawn) [N-allyl lactamide]
[1]; [6]
  Observed damage with solvent: None
[1]; [7]
  Observed damage with solvent and Tween 20: None
[2]
  EC50: > 100 µg/mL

## CCC(C)NC(=O)C(C)O (stereo not drawn) [N-sec-butyl lactamide]
[1]; [6]
  Observed damage with solvent: None
[1]; [7]
  Observed damage with solvent and Tween 20: None
